One molecule from ChEMBL document CHEMBL1142931, “Vascular disrupting agents” (Bioorg Med Chem, 2007) can be followed below.

The species entered for the data set is Homo sapiens. The experiment in a line: Half life in human assessed as ZD-6126-phenol. Type of data set: ADME, organism-based. As to conditions: in vivo.

For the molecule `COc1cc2c(c(OC)c1OC)-c1ccc(OP(=O)(O)O)cc1[C@@H](NC(C)=O)CC2` [ZD-6126], the t1/2 stood at 2 h.
